Assay results reported in ChEMBL document CHEMBL1201862, “PubChem BioAssay data set” (2004).
Activity calls are given as the source filed them.

Key:
[1] = molecular target: T1, Adenosylmethionine-8-amino-7-oxononanoate aminotransferase (Mycobacterium tuberculosis, UniProt P9WQ81); assay: Mycobacterium tuberculosis BioA enzyme inhibitor Measured in Biochemical System Using Plate Reader - 2163-02_Inhibitor_Dose_CherryPick_Activity.; type: functional, Mycobacterium tuberculosis UT205
T1 sequence (P9WQ81 whole entry): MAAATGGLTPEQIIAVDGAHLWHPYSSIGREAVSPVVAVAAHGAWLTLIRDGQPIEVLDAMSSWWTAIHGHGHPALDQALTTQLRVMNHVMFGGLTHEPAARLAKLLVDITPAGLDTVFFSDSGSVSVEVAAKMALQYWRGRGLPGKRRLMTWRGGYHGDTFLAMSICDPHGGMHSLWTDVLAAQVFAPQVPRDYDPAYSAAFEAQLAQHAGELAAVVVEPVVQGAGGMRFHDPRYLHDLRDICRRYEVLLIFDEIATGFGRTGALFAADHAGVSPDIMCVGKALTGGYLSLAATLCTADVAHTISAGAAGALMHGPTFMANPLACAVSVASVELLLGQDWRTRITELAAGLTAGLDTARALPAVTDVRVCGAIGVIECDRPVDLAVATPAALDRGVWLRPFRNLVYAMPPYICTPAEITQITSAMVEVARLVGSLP

[2] = molecular target: T2, Nuclear receptor subfamily 0 group B member 1 (Homo sapiens, UniProt P51843); type: functional, cell-based;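 further: HEK293T cells transfected with SF-1 and DAX-1 plus StAR promoter luciferase reporter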
T2 sequence (P51843 whole entry): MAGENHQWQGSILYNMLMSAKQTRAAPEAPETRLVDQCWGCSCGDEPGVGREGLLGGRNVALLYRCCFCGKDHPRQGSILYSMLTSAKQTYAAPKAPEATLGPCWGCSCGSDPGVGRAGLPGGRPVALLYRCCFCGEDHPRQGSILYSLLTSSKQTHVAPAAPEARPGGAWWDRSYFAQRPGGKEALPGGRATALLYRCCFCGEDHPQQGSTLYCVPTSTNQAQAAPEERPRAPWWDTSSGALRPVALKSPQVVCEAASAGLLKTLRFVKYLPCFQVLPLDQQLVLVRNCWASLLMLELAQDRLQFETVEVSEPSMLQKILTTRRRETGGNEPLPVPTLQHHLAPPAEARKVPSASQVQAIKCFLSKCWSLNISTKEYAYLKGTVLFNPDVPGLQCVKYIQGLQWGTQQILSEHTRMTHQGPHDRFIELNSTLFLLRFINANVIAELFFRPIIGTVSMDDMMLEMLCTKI

cells [3] = type: functional, cell-based
[4] = molecular target: T3, Trace amine-associated receptor 1 (Homo sapiens, UniProt Q96RJ0); assay: Fluorescence-based cell-based high throughput dose response assay to identify agonists of the human trace amine associated receptor 1 (TAAR1).; type: functional
T3 sequence (Q96RJ0 whole entry): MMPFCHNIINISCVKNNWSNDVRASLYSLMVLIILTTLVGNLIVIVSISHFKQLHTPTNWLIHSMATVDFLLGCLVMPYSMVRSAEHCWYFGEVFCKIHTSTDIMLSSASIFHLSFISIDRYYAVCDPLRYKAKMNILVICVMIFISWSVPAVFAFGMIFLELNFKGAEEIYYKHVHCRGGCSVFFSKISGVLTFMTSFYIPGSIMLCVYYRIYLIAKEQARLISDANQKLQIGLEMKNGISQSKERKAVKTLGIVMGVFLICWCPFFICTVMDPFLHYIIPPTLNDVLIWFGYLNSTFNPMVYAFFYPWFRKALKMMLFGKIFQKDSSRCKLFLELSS

[5] = molecular target: T3, Trace amine-associated receptor 1; assay: Counterscreen for agonists of the human trace amine associated receptor 1 (hTAAR1): Fluorescence-based cell-based high throughput dose response assay to identify hTAAR1 agonist that also desensitize TAAR1 receptor response.; type: functional
cells [6] = type: functional, cell-based; remark: listed apart in the source
cells [7] = type: functional, cell-based; remark: listed apart in the source
[8] = molecular target: T4, Small ubiquitin-related modifier 1 (Homo sapiens, UniProt P63165); assay: SUMO1 protein interaction blockers, potency – biochemical, fluorescence polarization, uHTS hits, dose response (AID 624382); type: functional; conditions: read-out: IC50_Mean
[9] = molecular target: T4, Small ubiquitin-related modifier 1; assay: SUMO1 protein-protein binding blockers, potency – biochemical, FRET, dose response (AID 624383); type: functional; conditions: read-out: IC50_Mean
[10] = viability loss in THP-1 monocytes – THP-1 cells, cytotoxicity control for Vif-APOBEC3G degradation inhibitor project, dose response (AID 1117359); type: functional; conditions: THP-1
[11] = molecular target: Nuclear receptor subfamily 5 group A member 2 (Homo sapiens, UniProt O00482); type: functional, cell-based;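 further: HEK293T cells transfected with LRH-1 and a StAR promoter luciferase reporter; potency for inhibitors that lower LRH-1 driven reporter light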
Steroidogenic factor 1 = Steroidogenic factor 1 (Homo sapiens, UniProt Q13285); assay: Counterscreen for inverse agonists of the liver receptor homolog-1 (LRH-1; NR5A2): Luminescence-based cell-based high throughput dose response assay to identify inverse agonists of the Steroidogenic Factor 1 Nuclear Receptor (SF1; NR5A1).; type: functional
[12] = nonselective StAR promoter luciferase inhibitors – cell-based, luminescence, luciferase reporter, counter-screen for LRH-1 inverse agonist project, dose response (AID 651969); type: functional
[13] = OVCAR8 cell viability loss – plate reader, dry powder samples, PAX8 project, dose response (AID 743197); type: functional, cell-based; conditions: OVCAR-8
Paired box protein Pax-8 = Paired box protein Pax-8 (Homo sapiens, UniProt Q06710); assay: PAX8 transcriptional activity inhibition in RMG-I – RMG-I cells, luciferase, cherry-pick, dose response (AID 687027); type: functional, cell-based;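 further: luciferase reporter driven by Pax8 target thyroperoxidase promoter measured by SteadyGlo luminescence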
[14] = IGROV1 cell killing – plate reader, dry powder samples, PAX8 inhibitor project, dose response (AID 743043); type: functional, cell-based; conditions: IGROV-1
[15] = Dd2 malaria parasite growth inhibition potency – SYBR Green, dry powder samples, dose response (AID 1159566); type: functional, cell-based;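 further: potency for growth inhibition with lower SYBR green DNA signal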
[16] = growth inhibition of yeast DHODH-expressing 3D7 parasites – SYBR Green, dry powder samples, dose response (AID 1159570); type: functional, cell-based;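 further: parasite growth measured after 72 hours of compound exposure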
[17] = growth inhibition of PfATP4-mutant resistant parasites – NITD609-resistant line, SYBR Green, dry powder, dose response (AID 1159571); type: functional, cell-based;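 further: parasites synchronized at ring stage by sorbitol before testing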
[18] = molecular target: T5, DNA repair protein RAD52 homolog (Homo sapiens, UniProt P43351); type: functional, biochemical
T5 sequence (P43351 whole entry): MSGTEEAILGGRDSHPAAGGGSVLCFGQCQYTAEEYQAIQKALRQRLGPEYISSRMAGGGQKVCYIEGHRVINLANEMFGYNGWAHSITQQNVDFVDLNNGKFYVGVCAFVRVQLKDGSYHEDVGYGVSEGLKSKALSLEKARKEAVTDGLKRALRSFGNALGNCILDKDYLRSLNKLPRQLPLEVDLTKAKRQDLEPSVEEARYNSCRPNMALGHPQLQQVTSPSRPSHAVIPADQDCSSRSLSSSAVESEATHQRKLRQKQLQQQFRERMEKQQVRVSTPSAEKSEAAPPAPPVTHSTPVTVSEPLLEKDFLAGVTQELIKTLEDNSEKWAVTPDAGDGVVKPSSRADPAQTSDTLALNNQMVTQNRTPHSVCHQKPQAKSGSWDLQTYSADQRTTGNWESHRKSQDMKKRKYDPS

[19] = molecular target: T6, Rac GTPase-activating protein 1 (Homo sapiens, UniProt Q9H0H5); assay: blockers of MgcRacGAP-driven Rac1 GTP hydrolysis – biochemical, ADP Hunter fluorescence, primary and confirmatory, confirmation (AID 624330); type: functional
T6 sequence (Q9H0H5 whole entry): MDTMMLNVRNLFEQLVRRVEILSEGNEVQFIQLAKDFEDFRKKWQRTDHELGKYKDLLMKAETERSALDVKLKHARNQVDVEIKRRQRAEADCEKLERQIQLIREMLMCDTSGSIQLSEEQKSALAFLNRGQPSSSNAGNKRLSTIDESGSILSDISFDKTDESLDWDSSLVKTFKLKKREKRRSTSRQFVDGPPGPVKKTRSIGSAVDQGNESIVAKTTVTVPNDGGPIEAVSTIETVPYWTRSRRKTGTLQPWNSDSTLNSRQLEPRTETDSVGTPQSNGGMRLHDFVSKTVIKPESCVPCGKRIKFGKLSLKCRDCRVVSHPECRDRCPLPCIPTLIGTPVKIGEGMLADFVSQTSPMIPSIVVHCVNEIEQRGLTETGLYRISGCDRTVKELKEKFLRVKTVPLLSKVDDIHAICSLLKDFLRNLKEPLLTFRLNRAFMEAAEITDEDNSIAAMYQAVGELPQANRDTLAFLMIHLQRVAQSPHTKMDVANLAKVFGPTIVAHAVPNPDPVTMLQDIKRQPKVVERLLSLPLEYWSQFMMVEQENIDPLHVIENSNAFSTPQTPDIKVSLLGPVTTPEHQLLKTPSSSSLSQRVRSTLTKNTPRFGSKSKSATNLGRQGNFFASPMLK

Nonstructural protein 1 = Nonstructural protein 1 (Influenza A virus, UniProt Q194T2); type: functional, Influenza A virus (A/California/07/2009(H1N1))
[20] = viability loss in HeLa cells – cytotoxicity control for MgcRacGAP inhibitor project, dose response (AID 624300); type: functional

Chain of Steroidogenic factor 1 (Q13285 whole entry): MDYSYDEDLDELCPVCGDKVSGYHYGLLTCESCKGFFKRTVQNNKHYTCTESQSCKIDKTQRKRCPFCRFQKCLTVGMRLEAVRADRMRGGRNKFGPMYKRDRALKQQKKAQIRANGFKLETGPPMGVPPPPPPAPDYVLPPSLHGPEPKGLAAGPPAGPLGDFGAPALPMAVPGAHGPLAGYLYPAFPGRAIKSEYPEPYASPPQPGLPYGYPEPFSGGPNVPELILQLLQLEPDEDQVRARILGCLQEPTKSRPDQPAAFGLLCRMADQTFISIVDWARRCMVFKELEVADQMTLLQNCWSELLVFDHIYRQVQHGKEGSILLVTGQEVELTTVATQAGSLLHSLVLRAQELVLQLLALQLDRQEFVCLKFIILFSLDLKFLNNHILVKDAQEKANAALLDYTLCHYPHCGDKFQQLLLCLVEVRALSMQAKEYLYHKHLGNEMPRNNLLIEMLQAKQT
T4 sequence (P63165 whole entry): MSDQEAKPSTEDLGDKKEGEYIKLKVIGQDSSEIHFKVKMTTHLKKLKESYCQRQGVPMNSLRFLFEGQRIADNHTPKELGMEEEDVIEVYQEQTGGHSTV
Chain of Paired box protein Pax-8 (Q06710 whole entry): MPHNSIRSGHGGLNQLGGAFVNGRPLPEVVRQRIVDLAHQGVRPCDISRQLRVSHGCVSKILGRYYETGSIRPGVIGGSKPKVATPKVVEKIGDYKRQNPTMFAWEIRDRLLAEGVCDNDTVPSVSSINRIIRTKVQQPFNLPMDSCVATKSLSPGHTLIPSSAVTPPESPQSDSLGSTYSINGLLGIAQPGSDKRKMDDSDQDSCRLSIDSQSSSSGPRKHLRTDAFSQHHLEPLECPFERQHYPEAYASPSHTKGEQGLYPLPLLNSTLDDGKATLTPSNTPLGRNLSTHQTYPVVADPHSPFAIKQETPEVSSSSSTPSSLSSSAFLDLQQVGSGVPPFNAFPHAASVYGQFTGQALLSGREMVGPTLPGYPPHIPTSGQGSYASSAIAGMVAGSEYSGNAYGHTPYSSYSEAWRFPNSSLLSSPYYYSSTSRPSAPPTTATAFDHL
Chain of Nuclear receptor subfamily 5 group A member 2 (O00482 whole entry): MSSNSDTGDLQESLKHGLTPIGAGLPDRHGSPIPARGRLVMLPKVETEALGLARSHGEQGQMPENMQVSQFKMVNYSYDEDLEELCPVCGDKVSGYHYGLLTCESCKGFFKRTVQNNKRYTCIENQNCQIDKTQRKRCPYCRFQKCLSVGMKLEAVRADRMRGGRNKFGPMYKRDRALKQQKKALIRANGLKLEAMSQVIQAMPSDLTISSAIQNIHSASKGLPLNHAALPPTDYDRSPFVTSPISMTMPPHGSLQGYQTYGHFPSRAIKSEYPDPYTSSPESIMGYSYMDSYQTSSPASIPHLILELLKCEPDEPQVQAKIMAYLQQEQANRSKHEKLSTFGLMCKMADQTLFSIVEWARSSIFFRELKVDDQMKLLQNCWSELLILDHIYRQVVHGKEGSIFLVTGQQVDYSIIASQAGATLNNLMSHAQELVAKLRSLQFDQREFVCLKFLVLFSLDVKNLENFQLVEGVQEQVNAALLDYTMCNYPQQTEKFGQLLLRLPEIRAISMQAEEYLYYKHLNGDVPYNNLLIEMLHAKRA
Chain of Nonstructural protein 1 (Q194T2 whole entry): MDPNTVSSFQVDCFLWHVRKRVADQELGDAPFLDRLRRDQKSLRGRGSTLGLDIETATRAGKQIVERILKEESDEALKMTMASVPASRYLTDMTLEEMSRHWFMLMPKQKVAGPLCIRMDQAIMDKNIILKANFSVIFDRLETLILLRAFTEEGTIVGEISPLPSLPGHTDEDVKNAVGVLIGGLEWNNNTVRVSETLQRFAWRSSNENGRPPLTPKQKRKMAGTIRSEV

CCCN1CCN(C(=O)C2CCN(c3nnc(C)c4c(C)n(-c5ccc(C)cc5)nc34)CC2)CC1
AC50 [1]: 12.3 µM (active)

COc1ccc(C(CNC(=O)c2ccc(Cl)c(NC(=O)c3cccs3)c2)N2CCCC2)cc1 (stereo unspecified)
IC50 [2]: > 67.5 µM (inactive)
IC50 (cells [3]): > 67.5 µM (inactive)

O=C(Nc1ccncc1)Nc1ccc(F)cc1
EC50 [4]: 0.548 µM (active)
IC50 [5]: 4.91 µM (active)
IC50 (cells [6]): > 29.9 µM (inactive)
EC50 (cells [7]): > 29.9 µM (inactive)

Cc1ccc(Cn2c(CCNc3nc(-c4ccc(C)cc4)cs3)nc3cc(C(=O)NCCCO)ccc32)cc1
IC50 [8]: > 66.6 µM (inactive)
IC50 [9]: 9.43 µM (active)

O=C(c1ccc(F)cc1)N1CCC(C(=O)N(Cc2ccccc2)c2ccccc2)CC1
CC50 [10]: > 40 µM (active)

CCc1cc(=O)oc2c(C)c(OCC(=O)NCCCN3CCOCC3)ccc12
IC50 [11]: 35.9 µM (inactive)
IC50 (Steroidogenic factor 1): 35.9 µM (inactive)
IC50 [12]: 35.9 µM (inactive)

CC(O)(c1cccnc1)c1nc(-c2cccc(C#N)c2)cs1 (stereo unspecified)
IC50 [11]: 35.9 µM (inactive)
IC50 (Steroidogenic factor 1): 15.7 µM (inactive)
IC50 [12]: 35.9 µM (inactive)

CC(=O)c1cccc(-c2ccnc3c2CC(C(=O)NCc2ccccc2)O3)c1 (stereo unspecified)
IC50 [2]: > 67.4 µM (inactive)
IC50 (cells [3]): > 67.4 µM (inactive)

COc1cc(C(=O)c2cc3c(cc2C)OCO3)cc(OC)c1OC
IC50 [2]: > 67.5 µM (inactive)
IC50 (cells [3]): > 67.5 µM (inactive)

C[C@@H]1CN([C@H](C)CO)C(=O)c2cc(NC(=O)Nc3ccc(F)cc3)ccc2O[C@@H](C)CCCCO[C@@H]1CN(C)Cc1ccc2c(c1)OCO2
AC50 [13]: 58.6 µM (active)
AC50 (Paired box protein Pax-8): 10.9 µM (active)

C[C@H]1CCCCO[C@H](CN(C)C(=O)Nc2cccc3ccccc23)[C@@H](C)CN([C@@H](C)CO)C(=O)c2cc(NS(=O)(=O)c3ccc(Cl)cc3)ccc2O1
AC50 [13]: > 70 µM (inactive)
AC50 (Paired box protein Pax-8): 4.51 µM (active)
AC50 [14]: 55.2 µM (active)

CCOc1cccc(-c2c(C(=O)N/N=C/c3ccc(C)o3)nnn2-c2nonc2N)c1
EC50 [4]: 3.78 µM (active)
IC50 [5]: 17.2 µM (inactive)
IC50 (cells [6]): > 29.9 µM (inactive)
EC50 (cells [7]): 19.4 µM (inactive)

C[C@H](CO)N1C[C@H](C)[C@@H](CN(C)CC2CCCC2)Oc2ncc(C#CCc3ccccc3)cc2C1=O
AC50 [15]: 0.59 µM (active)
AC50 [16]: 3.18 µM (active)
AC50 [17]: 0.28 µM (active)

CCN(CC)CCNc1ccc(C)c2sc3ccc(O)cc3c(=O)c12
AC50 [18]: 0.655 µM (active)
IC50 [19]: 21.8 µM (active)
IC50 (Nonstructural protein 1): 19.7 µM (active)
CC50 [20]: 31 µM (active)
